In patent US20260250318A1, “COMPOSITIONS AND METHODS FOR CROSSING THE BLOOD BRAIN BARRIER” (VOYAGER THERAPEUTICS, INC., priority 2022, published 2026):

How the values were obtained:
brain [1] = experiment: Maturation of TTM-002 capsid, NGS enrichment in brain of CD-1 Outbred mice; type: in vivo; settings: NGS fold-enrichment in the brain of CD-1 Outbred mice; intravenous, 1.0×10^12 VG/dose, 14 days; RNA; relative to non-matured TTM-002 control
Excerpt: This Example describes maturation of the TTM-001 (SEQ ID NO: 981 (amino acid) and 983 (DNA), comprising SEQ ID NO: 941) and TTM-002 (SEQ ID NO: 982 (amino acid) and 984 (DNA), comprising SEQ ID NO: 2) capsid variants to further enhance their transduction and biodistribution in the central nervous system and evolve the AAV capsid variants to provide further cross-species compatibility. Two approaches were used to mature the TTM-001 and TTM-002 capsid sequences in order to randomize and mutate within and around the peptide insert comprised within loop IV of the capsid variant. […] In the first maturation approach, sets of three contiguous amino acids were randomized across the mutagenesis region in the TTM-001 and TTM-002 sequences, which spanned from position 450 to position 466, numbered according to SEQ ID NO: 981 and 982. In the second maturation approach, mutagenic primers were used to introduce point mutations at a low frequency, scattered across the mutagenesis region in the TTM-001 and TTM-002 sequences ranging from position 449 to position 466, numbered according to SEQ ID NO: 981 and 982. AAV capsid variants arising from each maturation approach for TTM-001 were pooled together and AAV capsid variants arising from each maturation approach for TTM-002 were also pooled together, for subsequent testing and characterization in mice.
The library of pooled matured AAV capsid variants generated from TTM-001 or library of pooled matured AAV capsid variants generated from the TTM-002 matured AAV capsid variant each were intravenously injected into the tail vein of three female CD-1 Outbred mice (Charles River) at a dose of 1.0×10^12 VG/dose. After 14-days in life, the brains of the mice were isolated and RNA was extracted. Following RNA recovery and RT-PCR amplification, a systematic NGS enrichment analysis was performed to calculate the fold enrichment ratio relative to the corresponding TTM-001 or TTM-002 control, and the peptides comprised within the variants were identified. The data for the TTM-001 matured capsid variants is provided in Table 13 and the data for the TTM-002 matured capsid variants is provided in Table 14.

brain [2] = experiment: Matured TTM-001 and TTM-002 variants, NGS enrichment in mouse brain; type: in vivo, mice; settings: relative to AAV9 control
[3] = system: brains, heart, liver, muscle, and DRG of the NHPs; experiment: Maturation of TTM-001 and TTM-002 capsids, NGS enrichment in NHP tissues; type: in vivo; settings: relative to AAV9 control
How it was run: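 Variants carry mutations within and flanking the loop IV peptide insert: positions 450–466 were triplet-randomized, while positions 449–466 received low-frequency point mutations. The combined pool went into two NHPs, and each peptide was scored by NGS enrichment ratio against AAV9.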

[4] = NGS fold-enrichment, brain of mice
[5] = NGS fold-enrichment, DRG of NHPs
[6] = NGS fold-enrichment, RNA, brain of NHPs
[7] = NGS fold-enrichment, heart of NHPs
[8] = NGS fold-enrichment, liver DNA of NHPs
[9] = NGS fold-enrichment, liver RNA of NHPs
[10] = NGS fold-enrichment, muscle of NHPs
[11] = NGS fold-enrichment of matured AAV capsid variants, NHP brain, RNA
[12] = NGS fold-enrichment, mouse brain
[13] = NGS fold-enrichment of RNA, NHP brain
[14] = NGS fold-enrichment, NHP liver DNA
[15] = NGS fold-enrichment, NHP liver RNA
[16] = NGS fold-enrichment, NHP muscle

Sequence: KTINGHDSPHLCGQNQQT
- Fold enrichment over TTM-002 (brain [1]): 2.59

Sequence: KTIKDNDSPHKSGQNQQT
- Fold enrichment over TTM-002 (brain [1]): 2.27

Sequence: KTGNGHDSPHKSGQYQQT
- Fold enrichment over TTM-002 (brain [1]): 2.03

Sequence: KDIMGHDSPHKSGQNQQT
- Fold enrichment over TTM-002 (brain [1]): 2.23

Sequence: KMDGGHDSPHKSGQNQQT
- Fold enrichment over TTM-002 (brain [1]): 2.09

Sequence: KTINGHDSPHINGQKQQT (KTINGHDSPHTNGQKQQT)
- Fold enrichment over TTM-002 (brain [1]): 2.38

Sequence: KAEWGHDSPHKSGQNQQT
- Fold enrichment over TTM-002 (brain [1]): 2.69

Sequence: KADQGHDSPHKSGQNQQT
- Fold enrichment over TTM-002 (brain [1]): 2.07

Sequence: KRINGHDSPHKSGQKQQN
- Fold enrichment over TTM-002 (brain [1]): 2.34

Sequence: KIEIGHDSPHKSGQNQQT
- Fold enrichment over TTM-002 (brain [1]): 2.30

Sequence: KNMNGHDSPHKSGQNTHS
- Fold enrichment over TTM-002 (brain [1]): 2.06

Sequence: KLEWGHDSPHKSGQNQQT
- Fold enrichment over TTM-002 (brain [1]): 2.14

Sequence: KTANEHDSPHKSGQNQQT
- Fold enrichment over TTM-002 (brain [1]): 2.05

Sequence: KTAKDHDSPHKSGQNQQT
- Fold enrichment over TTM-002 (brain [1]): 2.11

Sequence: KATNGHDSPHKSGLNQQT
- Fold enrichment over TTM-002 (brain [1]): 2.10

Sequence: KTINGHDSPHWLLQNQQT
- Fold enrichment over TTM-002 (brain [1]): 2.37

Sequence: KLEYGHDSPHKSGQNQQT
- Fold enrichment over TTM-002 (brain [1]): 2.33

Sequence: KIEVGHDSPHKSGQNQQT
- Fold enrichment over TTM-002 (brain [1]): 2.16

Sequence: KIETGHDSPHKSGQNQQT
- Fold enrichment over TTM-002 (brain [1]): 2.38

Sequence: KMESGHDSPHKSGQNQQT
- Fold enrichment over TTM-002 (brain [1]): 2.18

Sequence: KMEMGHDSPHKSGQNQQT
- Fold enrichment over TTM-002 (brain [1]): 2.16

Sequence: KIPEGHDSPHKSGQNQQT
- Fold enrichment over TTM-002 (brain [1]): 2.54

Sequence: KTINGSGSPHSKAQERPT
- Fold Enrichment relative to AAV9, Brain (Mouse) (brain [2]; [4]): 57.506 fold
- Fold Enrichment relative to AAV9, DRG (NHP) [3, 5]: 0.000 fold
- Fold Enrichment relative to AAV9, Brain (NHP) [3, 6]: 63.460 fold
- Fold Enrichment relative to AAV9, Heart (NHP) [3, 7]: 0.011 fold
- Fold Enrichment relative to AAV9, Liver DNA (NHP) [3, 8]: 0.173 fold
- Fold Enrichment relative to AAV9, Liver RNA (NHP) [3, 9]: 0.810 fold
- Fold Enrichment relative to AAV9, Muscle (NHP) [3, 10]: 0.000 fold

Sequence: KTITGSGSPHSKAQTQLT
- Fold Enrichment relative to AAV9, Brain (Mouse) (brain [2]; [4]): 55.640 fold
- Fold Enrichment relative to AAV9, DRG (NHP) [3, 5]: 0.160 fold
- Fold Enrichment relative to AAV9, Brain (NHP) [3, 6]: 60.846 fold
- Fold Enrichment relative to AAV9, Heart (NHP) [3, 7]: 8.992 fold
- Fold Enrichment relative to AAV9, Liver DNA (NHP) [3, 8]: 0.000 fold
- Fold Enrichment relative to AAV9, Liver RNA (NHP) [3, 9]: 0.000 fold
- Fold Enrichment relative to AAV9, Muscle (NHP) [3, 10]: 0.000 fold

Sequence: KTINGSGSPHSKAQERST
- Fold Enrichment relative to AAV9, Brain (Mouse) (brain [2]; mouse brain): 87.656 fold
- Fold Enrichment relative to AAV9, Brain (NHP) [3, 11]: 58.021 fold
- Fold Enrichment relative to AAV9, DRG (NHP) ([3]; NHP DRG): 0.000 fold
- Fold Enrichment relative to AAV9, Heart (NHP) ([3]; NHP heart): 0.011 fold
- Fold Enrichment relative to AAV9, Liver DNA (NHP) ([3]; NHP liver, DNA): 0.409 fold
- Fold Enrichment relative to AAV9, Liver RNA (NHP) ([3]; NHP liver, RNA): 0.829 fold
- Fold Enrichment relative to AAV9, Muscle (NHP) ([3]; NHP muscle): 0.005 fold

Sequence: KTVDGHDSPHKSGQKQQT
- Fold Enrichment relative to AAV9, Brain (Mouse) (brain [2]; [12]): 7.200 fold
- Fold Enrichment relative to AAV9, Brain (NHP) [3, 13]: 78.802 fold
- Fold Enrichment relative to AAV9, DRG (NHP) ([3]; NGS fold-enrichment, NHP DRG): 0.000 fold
- Fold Enrichment relative to AAV9, Heart (NHP) ([3]; NGS fold-enrichment, NHP heart): 0.069 fold
- Fold Enrichment relative to AAV9, Liver DNA (NHP) [3, 14]: 0.342 fold
- Fold Enrichment relative to AAV9, Liver RNA (NHP) [3, 15]: 0.157 fold
- Fold Enrichment relative to AAV9, Muscle (NHP) [3, 16]: 0.000 fold

Sequence: KTSNGSGSPHSKAQNQST
- Fold Enrichment relative to AAV9, Brain (Mouse) (brain [2]; mouse brain): 120.897 fold
- Fold Enrichment relative to AAV9, Brain (NHP) [3, 11]: 53.353 fold
- Fold Enrichment relative to AAV9, DRG (NHP) ([3]; NHP DRG): 0.000 fold
- Fold Enrichment relative to AAV9, Heart (NHP) ([3]; NHP heart): 0.000 fold
- Fold Enrichment relative to AAV9, Liver DNA (NHP) ([3]; NHP liver, DNA): 0.014 fold
- Fold Enrichment relative to AAV9, Liver RNA (NHP) ([3]; NHP liver, RNA): 0.000 fold
- Fold Enrichment relative to AAV9, Muscle (NHP) ([3]; NHP muscle): 0.000 fold

Sequence: KAINGHDSPHKSEKNQQT
- Fold Enrichment relative to AAV9, Brain (Mouse) (brain [2]; [12]): 26.868 fold
- Fold Enrichment relative to AAV9, Brain (NHP) [3, 13]: 77.103 fold
- Fold Enrichment relative to AAV9, DRG (NHP) ([3]; NGS fold-enrichment, NHP DRG): 0.000 fold
- Fold Enrichment relative to AAV9, Heart (NHP) ([3]; NGS fold-enrichment, NHP heart): 0.274 fold
- Fold Enrichment relative to AAV9, Liver DNA (NHP) [3, 14]: 0.000 fold
- Fold Enrichment relative to AAV9, Liver RNA (NHP) [3, 15]: 0.000 fold
- Fold Enrichment relative to AAV9, Muscle (NHP) [3, 16]: 0.000 fold

Sequence: KTEDLSGSPHSKAQNQQT
- Fold Enrichment relative to AAV9, Brain (Mouse) (brain [2]; mouse brain): 70.198 fold
- Fold Enrichment relative to AAV9, Brain (NHP) [3, 11]: 54.156 fold
- Fold Enrichment relative to AAV9, DRG (NHP) ([3]; NHP DRG): 0.000 fold
- Fold Enrichment relative to AAV9, Heart (NHP) ([3]; NHP heart): 0.000 fold
- Fold Enrichment relative to AAV9, Liver DNA (NHP) ([3]; NHP liver, DNA): 0.132 fold
- Fold Enrichment relative to AAV9, Liver RNA (NHP) ([3]; NHP liver, RNA): 1.193 fold
- Fold Enrichment relative to AAV9, Muscle (NHP) ([3]; NHP muscle): 0.000 fold

Sequence: KTVNAHDSPHKSGQNQLT
- Fold Enrichment relative to AAV9, Brain (Mouse) (brain [2]; [12]): 29.254 fold
- Fold Enrichment relative to AAV9, Brain (NHP) [3, 13]: 79.137 fold
- Fold Enrichment relative to AAV9, DRG (NHP) ([3]; NGS fold-enrichment, NHP DRG): 0.000 fold
- Fold Enrichment relative to AAV9, Heart (NHP) ([3]; NGS fold-enrichment, NHP heart): 0.233 fold
- Fold Enrichment relative to AAV9, Liver DNA (NHP) [3, 14]: 0.045 fold
- Fold Enrichment relative to AAV9, Liver RNA (NHP) [3, 15]: 0.753 fold
- Fold Enrichment relative to AAV9, Muscle (NHP) [3, 16]: 0.178 fold

Sequence: KTINGSGSPHSKAQIPPT
- Fold Enrichment relative to AAV9, Brain (Mouse) (brain [2]; [4]): 87.661 fold
- Fold Enrichment relative to AAV9, DRG (NHP) [3, 5]: 0.000 fold
- Fold Enrichment relative to AAV9, Brain (NHP) [3, 6]: 61.258 fold
- Fold Enrichment relative to AAV9, Heart (NHP) [3, 7]: 0.000 fold
- Fold Enrichment relative to AAV9, Liver DNA (NHP) [3, 8]: 0.115 fold
- Fold Enrichment relative to AAV9, Liver RNA (NHP) [3, 9]: 0.758 fold
- Fold Enrichment relative to AAV9, Muscle (NHP) [3, 10]: 0.000 fold

Sequence: KTEKGSGSPHSKAQNQQT
- Fold Enrichment relative to AAV9, Brain (Mouse) (brain [2]; [4]): 84.653 fold
- Fold Enrichment relative to AAV9, Brain (Mouse) (brain [2]; [12]): 84.653 fold
- Fold Enrichment relative to AAV9, Brain (NHP) [3, 13]: 105.614 fold
- Fold Enrichment relative to AAV9, DRG (NHP) [3, 5]: 0.053 fold
- Fold Enrichment relative to AAV9, DRG (NHP) ([3]; NGS fold-enrichment, NHP DRG): 0.053 fold
- Fold Enrichment relative to AAV9, Heart (NHP) ([3]; NGS fold-enrichment, NHP heart): 0.031 fold
- Fold Enrichment relative to AAV9, Liver DNA (NHP) [3, 14]: 0.169 fold
- Fold Enrichment relative to AAV9, Liver RNA (NHP) [3, 15]: 0.586 fold
- Fold Enrichment relative to AAV9, Muscle (NHP) [3, 16]: 0.000 fold
- Fold Enrichment relative to AAV9, Brain (NHP) [3, 6]: 105.614 fold
- Fold Enrichment relative to AAV9, Heart (NHP) [3, 7]: 0.031 fold
- Fold Enrichment relative to AAV9, Liver DNA (NHP) [3, 8]: 0.169 fold
- Fold Enrichment relative to AAV9, Liver RNA (NHP) [3, 9]: 0.586 fold
- Fold Enrichment relative to AAV9, Muscle (NHP) [3, 10]: 0.000 fold

Sequence: ETIKGSGSPHSKAQNQQT
- Fold Enrichment relative to AAV9, Brain (Mouse) (brain [2]; [4]): 67.201 fold
- Fold Enrichment relative to AAV9, DRG (NHP) [3, 5]: 0.000 fold
- Fold Enrichment relative to AAV9, Brain (NHP) [3, 6]: 64.609 fold
- Fold Enrichment relative to AAV9, Heart (NHP) [3, 7]: 0.000 fold
- Fold Enrichment relative to AAV9, Liver DNA (NHP) [3, 8]: 0.024 fold
- Fold Enrichment relative to AAV9, Liver RNA (NHP) [3, 9]: 0.000 fold
- Fold Enrichment relative to AAV9, Muscle (NHP) [3, 10]: 0.144 fold
